From ChEMBL document CHEMBL4507298 (2021)

Legend:
[1] = test system: Phosphatidylinositol 4,5-bisphosphate 3-kinase catalytic subunit alpha isoform (Homo sapiens), P42336 [Q546K]; settings: Compound concentration 1000.0 nM
[2] = target: Beta-3 adrenergic receptor (Homo sapiens) (UniProt P13945); experiment: beta 3 (h) CEREP ligand profiling; settings: Compound concentration 10.0 uM
[3] = target: MAP/microtubule affinity-regulating kinase 3 (Homo sapiens) (UniProt P27448); settings: Compound concentration 1000.0 nM
[4] = target: Mitogen-activated protein kinase 15 (Homo sapiens) (UniProt Q8TD08); settings: Compound concentration 1000.0 nM
[5] = target: Growth hormone secretagogue receptor type 1 (Homo sapiens) (UniProt Q92847); experiment: Ghrelin (h) (GHS) CEREP ligand profiling; settings: Compound concentration 10.0 uM
[6] = target: Vasopressin V2 receptor (Homo sapiens) (UniProt P30518); experiment: V2 (h) CEREP ligand profiling; settings: Compound concentration 10.0 uM
[7] = target: Inhibitor of nuclear factor kappa-B kinase subunit epsilon (Homo sapiens) (UniProt Q14164); settings: Compound concentration 1000.0 nM
[8] = target: Testis-specific serine/threonine-protein kinase 3 (Homo sapiens) (UniProt Q96PN8); settings: Compound concentration 1000.0 nM
[9] = target: Leukotriene B4 receptor 1 (Homo sapiens, UniProt Q15722); experiment: LTB4 (h) (BLT1) CEREP ligand profiling
[10] = target: Serine/threonine-protein kinase SIK1 (Homo sapiens) (UniProt P57059); settings: Compound concentration 1000.0 nM
[11] = target: 5-hydroxytryptamine receptor 7 (Homo sapiens) (UniProt P34969); settings: Compound concentration 10.0 uM
[12] = target: Tyrosine-protein kinase Lyn (Homo sapiens) (UniProt P07948); experiment: Lyn kinase (h) CEREP ligand profiling; settings: Compound concentration 10.0 uM
[13] = target: Acetylcholine receptor, muscle-type, subunit alpha-1 (Homo sapiens) (UniProt P02708); experiment: N (muscle-type) (h) CEREP ligand profiling; settings: Compound concentration 10.0 uM
[14] = target: Serine/threonine-protein kinase D2 (Homo sapiens) (UniProt Q9BZL6); settings: Compound concentration 1000.0 nM
[15] = target: Ephrin type-A receptor 1 (Homo sapiens) (UniProt P21709); settings: Compound concentration 1000.0 nM
[16] = target: RAC-gamma serine/threonine-protein kinase (Homo sapiens) (UniProt Q9Y243); settings: Compound concentration 1000.0 nM
[17] = target: Cyclin-dependent kinase 8 (Homo sapiens) (UniProt P49336); settings: Compound concentration 1000.0 nM
[18] = target: Tyrosine-protein kinase ABL1 (Homo sapiens) (UniProt P00519); experiment: Abl kinase (h) CEREP ligand profiling; settings: Compound concentration 10.0 uM
[19] = target: STE20-like serine/threonine-protein kinase (Homo sapiens) (UniProt Q9H2G2); settings: Compound concentration 1000.0 nM
[20] = target: Serine/threonine-protein kinase 24 (Homo sapiens) (UniProt Q9Y6E0); settings: Compound concentration 1000.0 nM
[21] = target: Sigma intracellular receptor 2 (Homo sapiens) (UniProt Q5BJF2); settings: Compound concentration 10.0 uM
[22] = target: Cyclin-dependent kinase 19 (Homo sapiens) (UniProt Q9BWU1); settings: Compound concentration 1000.0 nM
[23] = target: Serine/threonine-protein kinase Sgk1 (Homo sapiens) (UniProt O00141); settings: Compound concentration 1000.0 nM
[24] = target: Serine/threonine-protein kinase MARK2 (Homo sapiens) (UniProt Q7KZI7); settings: Compound concentration 1000.0 nM
[25] = target: Serine/threonine-protein kinase PAK 3 (Homo sapiens) (UniProt O75914); settings: Compound concentration 1000.0 nM
[26] = target: Serine/threonine-protein kinase ULK1 (Homo sapiens) (UniProt O75385); settings: Compound concentration 1000.0 nM
[27] = target: Tyrosine-protein kinase JAK1 (Homo sapiens) (UniProt P23458); settings: Compound concentration 1000.0 nM
[28] = target: Tyrosine-protein kinase Fgr (Homo sapiens) (UniProt P09769); settings: Compound concentration 1000.0 nM
[29] = target: Glycogen synthase kinase-3 alpha (Homo sapiens) (UniProt P49840); settings: Compound concentration 1000.0 nM
[30] = target: Substance-P receptor (Homo sapiens) (UniProt P25103); experiment: NK1 (h) CEREP ligand profiling; settings: Compound concentration 10.0 uM
[31] = target: Dual specificity mitogen-activated protein kinase kinase 7 (Homo sapiens) (UniProt O14733); settings: Compound concentration 1000.0 nM
[32] = target: STE20/SPS1-related proline-alanine-rich protein kinase (Homo sapiens) (UniProt Q9UEW8); settings: Compound concentration 1000.0 nM
[33] = target: Tyrosine-protein kinase JAK2 (Homo sapiens) (UniProt O60674); settings: Compound concentration 1000.0 nM
[34] = target: Motilin receptor (Homo sapiens) (UniProt O43193); experiment: Motilin (h) CEREP ligand profiling; settings: Compound concentration 10.0 uM
[35] = target: T1, Muscarinic acetylcholine receptor M1 (Homo sapiens) (UniProt P11229); experiment: M1 (h) CEREP ligand profiling; settings: Compound concentration 10.0 uM
T1 sequence (whole entry): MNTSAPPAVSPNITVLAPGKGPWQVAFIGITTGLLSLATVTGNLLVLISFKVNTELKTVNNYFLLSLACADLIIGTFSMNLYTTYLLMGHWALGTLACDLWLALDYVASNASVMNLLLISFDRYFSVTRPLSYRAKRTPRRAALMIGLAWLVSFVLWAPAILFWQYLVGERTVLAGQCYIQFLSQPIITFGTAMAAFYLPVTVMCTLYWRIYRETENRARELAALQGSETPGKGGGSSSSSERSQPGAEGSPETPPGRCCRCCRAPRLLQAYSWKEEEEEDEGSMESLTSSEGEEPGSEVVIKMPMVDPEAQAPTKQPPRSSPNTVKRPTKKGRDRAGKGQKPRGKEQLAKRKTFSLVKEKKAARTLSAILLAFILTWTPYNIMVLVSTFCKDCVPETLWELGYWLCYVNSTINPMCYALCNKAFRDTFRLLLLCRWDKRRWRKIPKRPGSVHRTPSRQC

[36] = target: Serine/threonine-protein kinase DCLK3 (Homo sapiens) (UniProt Q9C098); settings: Compound concentration 1000.0 nM
[37] = target: Phosphodiesterase 6 (Homo sapiens) (UniProt Q13956+P18545+P35913+O43924+P16499+P51160); experiment: PDE6 CEREP ligand profiling; assay type: protein assay; settings: Compound concentration 10.0 uM
D(1A) dopamine receptor = D(1A) dopamine receptor (Homo sapiens, UniProt P21728); experiment: GPCRScan assay: inhibition of D1; set-up: radioligand conc. used [nm] 0.6 – 1.3, parental cells HEKT
[38] = target: Sigma non-opioid intracellular receptor 1 (Homo sapiens) (UniProt Q99720); settings: Compound concentration 10.0 uM

Sequence of Leukotriene B4 receptor 1 (Q15722 whole entry): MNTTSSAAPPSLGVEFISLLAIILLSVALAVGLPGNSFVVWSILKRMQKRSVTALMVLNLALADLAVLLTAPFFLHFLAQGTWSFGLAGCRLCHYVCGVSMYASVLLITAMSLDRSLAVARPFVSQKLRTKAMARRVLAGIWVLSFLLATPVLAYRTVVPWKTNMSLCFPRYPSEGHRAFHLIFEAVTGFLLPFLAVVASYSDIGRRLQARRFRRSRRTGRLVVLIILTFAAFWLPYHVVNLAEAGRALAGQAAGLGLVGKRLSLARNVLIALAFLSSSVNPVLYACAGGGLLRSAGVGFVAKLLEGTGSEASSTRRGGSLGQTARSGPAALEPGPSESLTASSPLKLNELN
Sequence of MAP/microtubule affinity-regulating kinase 3 (Homo sapiens) (P27448 whole entry, looked up): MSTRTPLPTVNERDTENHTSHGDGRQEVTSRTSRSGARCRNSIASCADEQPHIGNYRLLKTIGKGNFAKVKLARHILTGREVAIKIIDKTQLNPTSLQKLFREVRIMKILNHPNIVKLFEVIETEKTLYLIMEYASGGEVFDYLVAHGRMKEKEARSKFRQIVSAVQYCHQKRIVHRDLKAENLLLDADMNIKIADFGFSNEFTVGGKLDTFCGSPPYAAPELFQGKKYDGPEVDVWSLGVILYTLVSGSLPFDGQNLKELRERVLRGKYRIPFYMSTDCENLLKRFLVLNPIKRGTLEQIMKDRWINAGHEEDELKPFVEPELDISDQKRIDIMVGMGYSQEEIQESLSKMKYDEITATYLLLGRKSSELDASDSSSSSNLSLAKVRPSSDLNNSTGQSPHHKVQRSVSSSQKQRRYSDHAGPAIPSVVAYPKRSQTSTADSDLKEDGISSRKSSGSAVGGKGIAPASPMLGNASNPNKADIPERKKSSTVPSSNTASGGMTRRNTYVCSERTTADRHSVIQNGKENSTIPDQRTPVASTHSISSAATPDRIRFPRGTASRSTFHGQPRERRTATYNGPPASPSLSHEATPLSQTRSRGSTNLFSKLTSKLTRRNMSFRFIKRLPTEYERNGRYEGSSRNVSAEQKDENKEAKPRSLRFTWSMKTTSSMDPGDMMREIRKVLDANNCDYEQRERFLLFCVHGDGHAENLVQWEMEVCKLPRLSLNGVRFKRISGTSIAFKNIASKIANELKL
Sequence of Cyclin-dependent kinase 19 (Homo sapiens) (Q9BWU1 whole entry): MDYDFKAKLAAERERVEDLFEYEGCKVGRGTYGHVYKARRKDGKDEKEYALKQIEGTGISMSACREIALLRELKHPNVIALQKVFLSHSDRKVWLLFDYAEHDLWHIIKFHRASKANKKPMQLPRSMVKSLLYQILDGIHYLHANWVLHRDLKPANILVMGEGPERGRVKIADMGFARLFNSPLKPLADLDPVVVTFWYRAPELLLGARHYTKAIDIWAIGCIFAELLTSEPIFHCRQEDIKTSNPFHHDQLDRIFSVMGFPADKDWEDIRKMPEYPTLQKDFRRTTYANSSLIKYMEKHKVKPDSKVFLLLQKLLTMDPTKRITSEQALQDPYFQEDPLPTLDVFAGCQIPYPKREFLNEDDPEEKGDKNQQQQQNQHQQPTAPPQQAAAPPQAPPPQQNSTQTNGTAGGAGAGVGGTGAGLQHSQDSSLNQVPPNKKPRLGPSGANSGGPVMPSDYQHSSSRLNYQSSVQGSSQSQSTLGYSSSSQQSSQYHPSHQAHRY
Sequence of Glycogen synthase kinase-3 alpha (Homo sapiens) (P49840 2-483 limits assumed): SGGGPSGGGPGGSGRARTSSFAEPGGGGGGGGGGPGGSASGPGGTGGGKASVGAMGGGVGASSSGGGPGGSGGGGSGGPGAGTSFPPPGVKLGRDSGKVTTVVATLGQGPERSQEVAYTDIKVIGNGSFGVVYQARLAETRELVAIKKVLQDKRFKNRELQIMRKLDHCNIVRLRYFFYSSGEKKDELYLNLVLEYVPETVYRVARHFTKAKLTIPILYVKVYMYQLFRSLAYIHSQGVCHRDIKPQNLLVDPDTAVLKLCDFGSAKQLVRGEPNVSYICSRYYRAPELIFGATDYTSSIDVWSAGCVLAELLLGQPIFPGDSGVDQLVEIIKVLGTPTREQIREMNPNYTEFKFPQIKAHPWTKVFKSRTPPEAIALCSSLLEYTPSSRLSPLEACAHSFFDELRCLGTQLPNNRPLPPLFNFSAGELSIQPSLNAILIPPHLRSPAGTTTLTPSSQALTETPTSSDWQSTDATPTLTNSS
Sequence of Serine/threonine-protein kinase SIK1 (Homo sapiens) (P57059 whole entry): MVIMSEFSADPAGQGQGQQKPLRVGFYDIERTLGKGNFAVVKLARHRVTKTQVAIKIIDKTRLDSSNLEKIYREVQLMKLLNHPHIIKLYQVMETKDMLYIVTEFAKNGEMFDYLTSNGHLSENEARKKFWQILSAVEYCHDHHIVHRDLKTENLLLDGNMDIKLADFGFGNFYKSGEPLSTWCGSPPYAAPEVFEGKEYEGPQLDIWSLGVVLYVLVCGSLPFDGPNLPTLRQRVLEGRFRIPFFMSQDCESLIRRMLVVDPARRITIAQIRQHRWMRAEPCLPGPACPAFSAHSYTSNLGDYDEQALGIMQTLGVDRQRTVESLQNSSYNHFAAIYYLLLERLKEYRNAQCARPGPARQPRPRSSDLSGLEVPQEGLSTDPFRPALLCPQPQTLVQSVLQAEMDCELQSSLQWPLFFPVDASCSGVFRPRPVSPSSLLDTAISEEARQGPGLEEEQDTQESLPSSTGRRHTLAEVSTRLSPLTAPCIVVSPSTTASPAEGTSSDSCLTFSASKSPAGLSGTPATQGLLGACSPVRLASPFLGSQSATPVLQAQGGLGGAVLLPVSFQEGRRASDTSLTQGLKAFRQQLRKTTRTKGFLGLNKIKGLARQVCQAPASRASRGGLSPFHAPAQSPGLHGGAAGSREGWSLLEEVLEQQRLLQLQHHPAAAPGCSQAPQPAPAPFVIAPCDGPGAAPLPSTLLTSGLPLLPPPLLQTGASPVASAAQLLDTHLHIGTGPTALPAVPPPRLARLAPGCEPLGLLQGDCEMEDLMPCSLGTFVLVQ
Sequence of STE20-like serine/threonine-protein kinase (Homo sapiens) (Q9H2G2 whole entry, looked up): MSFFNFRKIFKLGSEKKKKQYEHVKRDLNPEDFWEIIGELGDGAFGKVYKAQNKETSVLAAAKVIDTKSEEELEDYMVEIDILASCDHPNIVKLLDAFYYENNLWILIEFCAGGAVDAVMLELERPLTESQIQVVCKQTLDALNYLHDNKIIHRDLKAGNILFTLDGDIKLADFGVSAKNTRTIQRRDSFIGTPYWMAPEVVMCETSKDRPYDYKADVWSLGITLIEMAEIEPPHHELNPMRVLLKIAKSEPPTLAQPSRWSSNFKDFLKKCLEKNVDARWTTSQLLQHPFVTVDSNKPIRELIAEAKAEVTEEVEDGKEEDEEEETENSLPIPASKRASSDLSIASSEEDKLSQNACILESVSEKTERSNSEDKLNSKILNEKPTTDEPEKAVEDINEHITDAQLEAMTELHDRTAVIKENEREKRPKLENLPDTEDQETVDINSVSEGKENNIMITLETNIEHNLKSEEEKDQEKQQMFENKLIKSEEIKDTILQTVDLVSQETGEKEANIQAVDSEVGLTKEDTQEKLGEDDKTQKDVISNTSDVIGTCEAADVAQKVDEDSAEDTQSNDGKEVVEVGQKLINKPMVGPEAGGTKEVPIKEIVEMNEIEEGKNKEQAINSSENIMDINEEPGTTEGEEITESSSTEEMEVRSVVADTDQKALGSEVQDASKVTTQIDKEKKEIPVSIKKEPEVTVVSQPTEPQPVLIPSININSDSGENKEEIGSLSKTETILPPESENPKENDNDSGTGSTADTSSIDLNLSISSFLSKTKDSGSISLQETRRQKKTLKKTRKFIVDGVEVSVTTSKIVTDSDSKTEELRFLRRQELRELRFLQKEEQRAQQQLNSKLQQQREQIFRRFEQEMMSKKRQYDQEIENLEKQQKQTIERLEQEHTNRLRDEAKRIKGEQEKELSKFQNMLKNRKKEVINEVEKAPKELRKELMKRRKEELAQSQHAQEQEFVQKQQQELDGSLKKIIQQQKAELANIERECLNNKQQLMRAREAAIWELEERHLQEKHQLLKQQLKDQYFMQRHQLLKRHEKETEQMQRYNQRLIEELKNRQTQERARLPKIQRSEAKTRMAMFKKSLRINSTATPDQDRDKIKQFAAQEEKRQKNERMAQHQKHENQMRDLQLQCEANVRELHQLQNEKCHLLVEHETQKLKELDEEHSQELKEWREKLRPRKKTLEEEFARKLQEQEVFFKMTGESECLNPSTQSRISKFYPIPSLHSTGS
Sequence of Acetylcholine receptor, muscle-type, subunit alpha-1 (Homo sapiens) (P02708 whole entry, looked up): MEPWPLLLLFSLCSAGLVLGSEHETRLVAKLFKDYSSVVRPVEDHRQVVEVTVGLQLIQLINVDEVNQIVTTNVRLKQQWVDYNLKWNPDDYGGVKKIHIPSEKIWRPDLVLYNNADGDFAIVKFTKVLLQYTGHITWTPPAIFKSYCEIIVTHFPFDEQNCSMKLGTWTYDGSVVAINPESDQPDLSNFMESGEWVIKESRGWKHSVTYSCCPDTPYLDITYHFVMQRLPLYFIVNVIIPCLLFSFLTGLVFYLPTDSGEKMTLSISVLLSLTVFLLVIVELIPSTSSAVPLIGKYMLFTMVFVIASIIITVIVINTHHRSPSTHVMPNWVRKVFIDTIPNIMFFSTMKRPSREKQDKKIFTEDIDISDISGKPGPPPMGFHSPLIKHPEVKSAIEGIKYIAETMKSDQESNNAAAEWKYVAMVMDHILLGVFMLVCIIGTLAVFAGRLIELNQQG
Sequence of Serine/threonine-protein kinase 24 (Homo sapiens) (Q9Y6E0 whole entry, looked up): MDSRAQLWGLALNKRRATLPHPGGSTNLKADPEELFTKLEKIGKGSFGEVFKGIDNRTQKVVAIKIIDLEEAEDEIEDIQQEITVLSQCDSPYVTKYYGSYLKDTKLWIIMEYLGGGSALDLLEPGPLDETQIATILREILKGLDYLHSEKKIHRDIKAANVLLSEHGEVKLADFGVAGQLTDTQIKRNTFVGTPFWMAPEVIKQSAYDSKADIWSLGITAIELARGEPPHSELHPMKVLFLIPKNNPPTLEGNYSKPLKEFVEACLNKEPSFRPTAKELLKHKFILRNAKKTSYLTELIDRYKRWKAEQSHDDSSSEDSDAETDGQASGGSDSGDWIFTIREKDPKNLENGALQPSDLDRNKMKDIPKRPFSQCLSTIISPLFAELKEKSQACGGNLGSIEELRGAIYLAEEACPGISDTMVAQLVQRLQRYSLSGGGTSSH

Q: COc1ccc2cc(OCC3(C(=O)O)CN(C(=O)c4ccc(F)cc4)C3)ccc2c1 [PF-04418948] was tested. Which residual activity [1] did it give?
A: 42%

Q: What about the inhibition [2] of the same compound?
A: 3%

Q: What about the residual activity [3] of the same compound?
A: 94%

Q: And the residual activity [4]?
A: 74%

Q: What about the inhibition [5] of the same compound?
A: -6%

Q: What about the inhibition [6] of the same compound?
A: -1%

Q: What about the residual activity [7] of the same compound?
A: 95%

Q: What about the residual activity [8] of the same compound?
A: 82%

Q: And the IC50 [9]?
A: 9.7 µM

Q: What about the Ki [9] of the same compound?
A: 4.8 µM

Q: What about the inhibition ([9]; Compound concentration 10.0 uM) of the same compound?
A: 51%

Q: And the residual activity [10]?
A: 97%

Q: And the inhibition [11]?
A: -9.26%

Q: And the inhibition [12]?
A: 2%

Q: What about the inhibition [13] of the same compound?
A: -10%

Q: What about the residual activity [14] of the same compound?
A: 93%

Q: What about the residual activity [15] of the same compound?
A: 83%

Q: What about the residual activity [16] of the same compound?
A: 88%

Q: What about the residual activity [17] of the same compound?
A: 94%

Q: What about the inhibition [18] of the same compound?
A: 9%

Q: And the residual activity [19]?
A: 85%

Q: And the residual activity [20]?
A: 85%

Q: And the inhibition [21]?
A: -1.29%

Q: What about the residual activity [22] of the same compound?
A: 95%

Q: And the residual activity [23]?
A: 81%

Q: What about the residual activity [24] of the same compound?
A: 91%

Q: And the residual activity [25]?
A: 94%

Q: What about the residual activity [26] of the same compound?
A: 92%

Q: And the residual activity [27]?
A: 96%

Q: What about the residual activity [28] of the same compound?
A: 96%

Q: And the residual activity [29]?
A: 96%

Q: And the inhibition [30]?
A: 3%

Q: And the residual activity [31]?
A: 79%

Q: What about the residual activity [32] of the same compound?
A: 55%

Q: What about the residual activity [33] of the same compound?
A: 89%

Q: And the inhibition [34]?
A: -5%

Q: What about the inhibition [35] of the same compound?
A: 9%

Q: And the residual activity [36]?
A: 98%

Q: And the inhibition [37]?
A: 3%

Q: What does the source list for O=C(c1ccc(F)cc1)N1CC(COc2ccc(Br)cc2)(C(=O)O)C1 [PF-04475866]?
A: Ki (D(1A) dopamine receptor): 10 µM; inhibition [38]: 20.3%
